Data reported in PMC13534789, “Molecular Glue Degraders Enhance CAPRIN1‐Dependent Lysosomal Degradation of APP and Reduce Amyloid β in Alzheimer's Disease” (Advanced Science, 2026).

Key:
CAPRIN1 = target: T1, CAPRIN1 (Homo sapiens, UniProt Q14444); assay: SPR, compound onto CAPRIN1 alone; format: binding; conditions: immobilized CAPRIN1
T1 construct: 10xHis (followed by a 3C site) (N); made in house; host or cells: Tni (Hi5) insect cells, baculovirus
Description: SPR experiments were conducted to investigate the interaction between APP695 and CAPRIN1 proteins using a Biacore T200 instrument (Cytiva). Both proteins were expressed in Tni (Hi5) insect cells and purified to homogeneity via tandem affinity and ion‐exchange. Protein purity and integrity were confirmed by SDS‐PAGE and size‐exclusion chromatography prior to analysis. All experiments were performed in a running buffer consisting of 50 mM HEPES at pH7.0, 100 mM KCl, 10% glycerol, and 0.01% (v/v) Tween‐20 supplemented with 0.1% (w/v) Sarkosyl (pH 7.4). APP695 was serially diluted in running buffer to final concentrations of 15, 5, 1, and 0.3 µM. Chip Preparation: A CM5 sensor chip (Cytiva) was activated using a 1:1 (v/v) mixture of 0.1 M N‐hydroxysuccinimide (NHS) and 0.1 M N‐ethyl‐N′‐(3‐dimethylaminopropyl) carbodiimide (EDC) to generate reactive ester groups. CAPRIN1 was diluted to 50 µg/mL in 10 mM Hepes‐KOH buffer (pH 6.0) and immobilized on the chip surface via standard amine coupling to achieve immobilization. Unreacted sites were blocked with 1 M ethanolamine‐HCl (pH 8.5). A reference flow cell was prepared similarly but without protein immobilization to control for non‐specific binding and bulk refractive index changes. Binding assay: Binding interactions were measured at 25°C with a flow rate of 30 µL/min. […]

[1] = IV and PO pharmacokinetics in mice; format: in vivo, C57BL/6 male mice; conditions: male; for AUC(0-t) / half-life / C0 / Tmax / Cmax: mouse plasma; for C0 / Cmax: read-out: C0/Cmax; for bioavailability: C57BL/6, mouse, plasma, oral, 10 mg/kg, PO 10 mpk vs IV 1 mpk, read-out: %F (oral bioavailability); for bioavailability / clearance / Vd: mouse; for clearance / Vd: C57BL/6, plasma, 1 mg/kg; for Vd: read-out: Vss
Description: IV and PO PK in rodents were processed by Sai Life Sciences Pvt. Ltd using 8‐ to 10‐week‐old C57BL/6 male mice following a single intravenous administration at 1 mg/kg and oral administration at 10 mg/kg. A total of eighteen mice (n = 9/group) were divided into two groups as Group 1 and Group 2, with a sparse sampling design (3 mice/time points). Animals in Group 1 were administered intravenously as slow bolus injections through the tail vein at 1 mg/kg dose, and animals in Group 2 were administered through the oral route at 10 mg/kg. For 0043, the formulation vehicle used for IV group was 5% NMP, 10% PG, 5% Solutol HS‐15, and 80% Captisol (10% w/v in RO water), and the formulation used for the PO group was 10% NMP, 10% PG, 10% TPGS, and 70% Captisol (10% w/v in RO water). For 0152, the formulation vehicle used for IV group was 5% DMSO, 20% Solutol HS‐15, and 75% PBS, and the formulation used for PO group was 5% NMP, 10% PG, 5% Solutol HS‐15, and 80% Captisol (10% w/v in RO water). Blood samples (approximately 60 µL) were collected under light isoflurane anesthesia (Surgivet) from retro orbital plexus from a set of three mice at 0.08, 0.25, 0.5, 1, 2, 4, 6, 8 and 24 h for IV and […], 0.5, 1, 2, 4, 6, 8 and 24 h for PO. Immediately after blood collection, plasma was harvested by centrifugation at 10 000 rpm, 10 min at […], and samples were stored at ‐70±10°C until bioanalysis. All samples were processed for analysis by the protein precipitation method and analyzed with a fit‐for‐purpose LC‐MS/MS method (LLOQ = 1.01 ng/mL). The plasma pharmacokinetic parameters were estimated using the non‐compartmental analysis tool of Phoenix WinNonlin software (Ver 8.3).

T1 sequence (Q14444 whole entry): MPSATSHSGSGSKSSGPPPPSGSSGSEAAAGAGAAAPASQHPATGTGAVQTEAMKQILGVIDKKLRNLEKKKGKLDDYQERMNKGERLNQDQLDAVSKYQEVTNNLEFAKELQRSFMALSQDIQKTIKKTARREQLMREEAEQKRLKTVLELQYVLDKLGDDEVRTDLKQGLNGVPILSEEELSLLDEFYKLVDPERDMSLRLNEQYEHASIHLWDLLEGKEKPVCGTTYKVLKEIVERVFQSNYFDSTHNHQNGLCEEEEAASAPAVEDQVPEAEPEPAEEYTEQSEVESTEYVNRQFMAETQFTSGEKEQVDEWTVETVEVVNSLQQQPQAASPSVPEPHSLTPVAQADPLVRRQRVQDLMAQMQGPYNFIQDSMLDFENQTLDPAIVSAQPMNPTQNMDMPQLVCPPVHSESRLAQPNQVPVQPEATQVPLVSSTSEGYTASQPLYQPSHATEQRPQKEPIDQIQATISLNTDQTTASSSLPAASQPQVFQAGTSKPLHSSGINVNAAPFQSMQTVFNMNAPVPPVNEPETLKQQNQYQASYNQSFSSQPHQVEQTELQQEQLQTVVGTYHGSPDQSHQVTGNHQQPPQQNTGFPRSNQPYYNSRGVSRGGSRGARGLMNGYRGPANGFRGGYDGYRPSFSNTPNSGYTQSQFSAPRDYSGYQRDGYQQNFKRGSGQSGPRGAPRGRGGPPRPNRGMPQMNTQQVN

SMILES: N#Cc1cccc(NC(=O)Nc2nc3ccc(C(=O)N4CCOCC4)cc3s2)c1 [compound 0043]
- Interaction with CAPRIN1 alone (CAPRIN1): no noticeable interaction
- AUC(0-t) ([1]; C57BL/6, 1 mg/kg, IV, 1 mpk): 219 ng·h/mL
- half-life ([1]; C57BL/6, 1 mg/kg, IV, 1 mpk): 9.6 min
- C0 ([1]; C57BL/6, 1 mg/kg, IV, 1 mpk): 1380 ng/mL
- AUC(0-t) ([1]; C57BL/6, 10 mg/kg, PO, 10 mpk): 107 ng·h/mL
- Tmax ([1]; C57BL/6, 10 mg/kg, PO, 10 mpk): 15 min
- half-life ([1]; C57BL/6, 10 mg/kg, PO, 10 mpk): 95.4 min
- Cmax ([1]; C57BL/6, 10 mg/kg, PO, 10 mpk): 97.5 ng/mL
- bioavailability [1]: 5%
- clearance ([1]; IV, 1 mpk): 75.3 mL/min/kg
- Vd ([1]; IV, 1 mpk): 0.77 L/kg

SMILES: COc1cccc(NC(=O)Nc2nc3ccc(C(=O)N4CCOCC4)cc3s2)c1 [compound 0152]
- Interaction with CAPRIN1 alone (CAPRIN1): no noticeable interaction
- AUC(0-t) ([1]; C57BL/6, 1 mg/kg, IV, 1 mpk): 209 ng·h/mL
- half-life ([1]; C57BL/6, 1 mg/kg, IV, 1 mpk): 25.2 min
- C0 ([1]; C57BL/6, 1 mg/kg, IV, 1 mpk): 938 ng/mL
- AUC(0-t) ([1]; C57BL/6, 10 mg/kg, PO, 10 mpk): 624 ng·h/mL
- Tmax ([1]; C57BL/6, 10 mg/kg, PO, 10 mpk): 30 min
- half-life ([1]; C57BL/6, 10 mg/kg, PO, 10 mpk): 144 min
- Cmax ([1]; C57BL/6, 10 mg/kg, PO, 10 mpk): 804 ng/mL
- bioavailability [1]: ≤ 30%
- clearance ([1]; IV, 1 mpk): 78.6 mL/min/kg
- Vd ([1]; IV, 1 mpk): 1.34 L/kg
